Literature values as cited in patent US5500226A, “Pharmaceutical composition having analgesic activity” (Zambon Group S.p.A., priority 1993, dated 1996).

Conditions: in words; vs Ibuprofen

CC(C)Cc1ccc([C@H](C)C(=O)O)cc1 [(S)-Ibuprofen, S(+)-2-(4-isobutylphenyl)propionic acid]
Analgesic effect: more rapid, and consequently a more lasting, analgesic effect than Ibuprofen
